Results from patent publication US8426602B2, “Heteroaryl-substituted dicyanopyridines and their use” (Bayer Intellectual Property GmbH, priority 2008, dated 2013).

Columns and labels:
Format in all cases: cell-based
[1] = target: T1, adenosine A1 receptor (Homo sapiens, UniProt P30542); assay: Indirect determination of adenosine agonism by way of gene expression (luciferase), A1 cells; conditions: stably transfected CHO cells; 1 μM forskolin; 50% inhibition of luciferase response
T1 construct: expressed in transfected cells; host or cells: CHO (Chinese Hamster Ovary)
T1 sequence (P30542 1-326): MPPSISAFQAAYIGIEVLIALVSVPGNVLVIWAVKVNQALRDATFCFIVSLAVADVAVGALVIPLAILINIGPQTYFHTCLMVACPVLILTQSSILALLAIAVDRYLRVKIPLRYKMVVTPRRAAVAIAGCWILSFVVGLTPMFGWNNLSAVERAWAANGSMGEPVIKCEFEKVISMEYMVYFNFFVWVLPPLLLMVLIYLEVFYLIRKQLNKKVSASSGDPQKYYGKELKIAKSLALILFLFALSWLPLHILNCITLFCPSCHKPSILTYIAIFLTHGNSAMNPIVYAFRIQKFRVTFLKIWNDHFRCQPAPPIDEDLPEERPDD
Description: (§1) B-1. Indirect Determination of the Adenosine Agonism by Way of Gene Expression
(§2) Cells of the CHO (Chinese Hamster Ovary) permanent line are transfected stably with the cDNA for the adenosine receptor subtypes A1, A2a and A2b. The adenosine A1 receptors are coupled to the adenylate cyclase by way of Gi proteins, while the adenosine A2a and A2b receptors are coupled by way of Gs proteins. In correspondence with this, the formation of cAMP in the cell is inhibited or stimulated, respectively. After that, expression of the luciferase is modulated by way of a cAMP-dependent promoter. The luciferase test is optimized, with the aim of high sensitivity and reproducibility, low variance and good suitability for implementation on a robot system, by varying several test parameters, such as cell density, duration of the growth phase and the test incubation, forskolin concentration and medium composition. The following test protocol is used for pharmacologically characterizing cells and for the robot-assisted substance screening:
(§3) The stock cultures are grown, at 37° C. and under 5% CO2, in DMEM/F12 medium containing 10% FCS (fetal calf serum) and in each case split 1:10 after 2-3 days. Test cultures are seeded in 384-well plates with 2000 cells per well and grown at 37° C. for approx. 48 hours. The medium is then replaced with a physiological sodium chloride solution (130 mM sodium chloride, 5 mM potassium chloride, 2 mM calcium chloride, 20 mM HEPES, 1 mM magnesium chloride hexahydrate, 5 mM sodium bicarbonate, pH 7.4). The substances to be tested, which are dissolved in DMSO, are pipetted into the test cultures (maximum final concentration of DMSO in the test mixture: 0.5%) in a dilution series of from 5×10^−11 M to 3×10^−6 M (final concentration). 10 minutes later, forskolin is added to the A1 cells and all the cultures are subsequently incubated at 37° C. for four hours. After that, 35 μl of a solution which is composed of 50% lysis reagent (30 mM disodium hydrogenphosphate, 10% glycerol, 3% TritonX100, 25 mM TrisHCl, 2 mM dithiotreitol (DTT), pH 7.8) and 50% luciferase substrate solution (2.5 mM ATP, 0.5 mM luciferin, 0.1 mM coenzyme A, 10 mM tricine, 1.35 mM magnesium sulfate, 15 mM DTT, pH 7.8) are added to the test cultures, which are shaken for approx. 1 minute and the luciferase activity is measured using a camera system. The EC50 values are determined, i.e., the concentrations at which 50% of the luciferase response is inhibited in the case of the A1 cell, and, respectively, 50% of the maximum stimulation with the corresponding substance is achieved in the case of the A2b and A2a cells. […] Pharmacol., 357, 1-9 (1998)).

[2] = target: T2, adenosine A2a receptor (Homo sapiens, UniProt P29274); assay: Indirect determination of adenosine agonism by way of gene expression (luciferase), A2a cells; conditions: stably transfected CHO cells; 50% of maximum stimulation of luciferase
T2 construct: expressed in transfected cells; host or cells: CHO (Chinese Hamster Ovary)
Description: as §1, §2, §3

[3] = target: T3, adenosine A2b receptor (Homo sapiens, UniProt P29275); assay: Indirect determination of adenosine agonism by way of gene expression (luciferase), A2b cells; conditions: stably transfected CHO cells; 50% of maximum stimulation of luciferase
T3 construct: expressed in transfected cells; host or cells: CHO (Chinese Hamster Ovary)
T3 sequence (P29275 1-332): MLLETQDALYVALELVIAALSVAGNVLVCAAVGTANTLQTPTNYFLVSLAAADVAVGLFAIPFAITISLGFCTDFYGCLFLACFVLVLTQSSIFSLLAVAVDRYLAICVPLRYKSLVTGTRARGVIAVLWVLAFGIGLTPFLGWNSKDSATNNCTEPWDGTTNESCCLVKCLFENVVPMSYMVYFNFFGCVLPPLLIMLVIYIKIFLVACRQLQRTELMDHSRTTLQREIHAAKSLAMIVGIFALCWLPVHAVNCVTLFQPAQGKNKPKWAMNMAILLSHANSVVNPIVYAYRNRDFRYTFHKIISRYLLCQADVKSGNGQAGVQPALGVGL
Description: as §1, §2, §3

[4] = target: T4, adenosine receptor subtype A2b (Homo sapiens, UniProt P29275); assay: Indirect determination of adenosine antagonism via gene expression (CRE luciferase), A2b cells; conditions: table after B-5; CHO K1 A2b cells; agonist 30 nM NECA
T4 construct: expressed in transfected cells; host or cells: CHO K1
T4 sequence (P29275 1-332): T3 sequence (P29275 1-332)
Description: (§4) B-5. Indirect Determination of Adenosine Antagonism Via Gene Expression
(§5) Cells of the permanent line CHO K1 (Chinese Hamster Ovary) are stably transfected with a reporter construct (CRE luciferase) and the cDNA for the adenosine receptor subtype A2a or A2b. A2a or A2b receptors are coupled via Gas proteins to the adenylate cyclase. Through receptor activation, the adenylate cyclase is activated and therefore the cAMP level in the cell increases. Via the reporter construct, a cAMP-dependent promoter, the change in the cAMP level is coupled to luciferase expression.
(§6) The permanent cell lines are cultured in DMEM/F12 (Cat.No. BE04-687Q; BioWhittaker) with 10% FCS (fetal calf serum) and various additives (20 ml/liter 1 M HEPES (Cat. No. 15630; Gibco), 20 ml/liter GlutaMAX (Cat. No. 35050-038, Gibco), 14 ml/liter MEM sodium pyruvate (Cat. No. 11360-039; Gibco) 10 ml/liter PenStrep (Cat. No. 15070-063; Gibco)) at 37° C. under 5% carbon dioxide, and split twice weekly.
(§7) For testing in the 384-well plate format, the cells are sown at 2000 cells/well in 25 μl/well sowing medium and cultured at 37° C. under 5% carbon dioxide until substance testing. […] The luciferase activity is detected with a luminescence reader. […]

[5] = target: T5, adenosine receptor subtype A2a (Homo sapiens, UniProt P29274); assay: Indirect determination of adenosine antagonism via gene expression (CRE luciferase), A2a cells; conditions: table after B-5; CHO K1 A2a cells; agonist 30 nM NECA
T5 construct: expressed in transfected cells; host or cells: CHO K1
Description: as §4, §5, §6, §7

[6] = target: T6, adenosine receptor subtype A1 (A1-Gα 16 fusion construct) (Homo sapiens, UniProt P30542); assay: Indirect determination of adenosine antagonism via gene expression (NFAT luciferase), A1-Gα16 cells; conditions: CHO K1 A1-Gα16 cells; agonist 25 nM CPA
T6 construct: "an A1-Gα 16 fusion construct
T6 sequence (P30542 1-326): T1 sequence (P30542 1-326)
Description: as §4
For determination of adenosine antagonism on the adenosine receptor subtype A1, once again CHO K1 cells are stably transfected, but this time with a Ca^2+-sensitive reporter construct (NFAT-TA-Luc; Clontech) and an A1-Gα 16 fusion construct. This receptor chimera is, in contrast to the native A1 receptor (Gαi-coupling), coupled to the phospholipase C. The luciferase is expressed here as a function of the cytosolic Ca^2+concentration.
as §6
as §7, with “testing. The A2a and A2b cells are sown, 24 h before substance testing, in medium with additives and 5% FCS, the base medium used for the A2a cells being DMEM/F12 and the base medium used for the A2b cells being OptiMEM (Cat. No. 31985-047; Gibco).” for “testing.”

T2 sequence (P29274 whole entry): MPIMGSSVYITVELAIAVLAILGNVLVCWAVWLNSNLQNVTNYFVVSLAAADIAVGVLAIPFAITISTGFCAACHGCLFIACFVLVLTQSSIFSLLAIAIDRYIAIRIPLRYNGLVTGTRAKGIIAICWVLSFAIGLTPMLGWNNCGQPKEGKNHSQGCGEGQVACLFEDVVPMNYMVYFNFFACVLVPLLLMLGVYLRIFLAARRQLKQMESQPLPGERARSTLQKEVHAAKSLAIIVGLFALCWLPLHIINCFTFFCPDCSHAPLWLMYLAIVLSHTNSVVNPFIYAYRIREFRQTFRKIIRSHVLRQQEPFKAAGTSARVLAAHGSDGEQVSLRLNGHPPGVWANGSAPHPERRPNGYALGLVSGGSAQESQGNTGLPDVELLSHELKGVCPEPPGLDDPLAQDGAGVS
T5 sequence (P29274 whole entry): as above

SMILES | EC50 [1] [nM] | EC50 [2] [nM] | EC50 [3] [nM] | EC50 [4] [nM] | EC50 [5] [nM] | IC50 [6] [nM]
N#Cc1c(N)nc(SCc2coc(-c3ccc(Cl)cc3)n2)c(C#N)c1-c1cncs1 [Example 4, 2-Amino-6-([2-(4-chlorophenyl)-1,3-oxazol-4-yl]methylsulfanyl)-4-(1,3-thiazol-5-yl)pyridine-3,5-dicarbonitrile] | 0.9 | 3000 | 3000 |  |  | 
N#Cc1c(N)nc(SCc2coc(-c3ccc(Cl)cc3)n2)c(C#N)c1-c1cn[nH]c1 [Example 12] | 2.4 | 3000 | 3000 |  |  | 
CNC(=O)c1cc(CSc2nc(N)c(C#N)c(-c3cc[nH]n3)c2C#N)ccn1 [Example 15] |  |  |  | 40 | ≥ 50000 | 0.5
N#Cc1c(SCc2coc(-c3ccc(Cl)cc3)n2)nc(N2CC(O)C2)c(C#N)c1-c1nccs1 [Example 20] | 0.5 | 3000 | 1800 |  |  | 
N#Cc1c(SCc2csc(-c3ccc(Cl)cc3)n2)nc(N2CC(O)C2)c(C#N)c1-c1cc[nH]n1 [Example 27] | 1.1 | 6500 | 6500 |  |  | 
CNC(=O)c1cc(CSc2nc(NCCO)c(C#N)c(-c3cc[nH]n3)c2C#N)ccn1 [Example 29] |  |  |  | 267 |  | 3.6
N#Cc1c(N)nc(SCc2csc(-c3ccc(Cl)cc3)n2)c(C#N)c1-c1cccs1 [Example 32, 2-Amino-6-({[2-(4-chlorophenyl)-1,3-thiazol-4-yl]methyl}sulfanyl)-4-thiophen-2-ylpyridine-3,5-dicarbonitrile] | 0.3 | 184 | 34 |  |  | 
N#Cc1c(N)nc(SCc2cccc(C(N)=O)c2)c(C#N)c1-c1cccs1 [Example 37, 3-({[6-Amino-3,5-dicyano-4-(2-thienyl)pyridin-2-yl]thio}methyl)benzamide] | 0.05 | 88 | 28 |  |  | 
N#Cc1c(SCc2csc(-c3ccc(Cl)cc3)n2)nc(N2CC[C@@H](O)C2)c(C#N)c1-c1cncs1 [Example 47, 2-({[2-(4-Chlorophenyl)-1,3-thiazol-4-yl]methyl}sulfanyl)-6-[(3R)-3-hydroxypyrrolidin-1-yl]-4-(1,3-thiazol-5-yl)pyridine-3,5-dicarbonitrile] | 0.5 | 3000 | 3000 |  |  | 

Further compounds by falling EC50 [1], results first:

EC50 [1] [nM] | EC50 [2] [nM] | EC50 [3] [nM] | EC50 [4] [nM] | EC50 [5] [nM] | IC50 [6] [nM] | SMILES
1.9 | 2000 | 1410 |  |  |  | CC(O)Cn1ccc(-c2c(C#N)c(N)nc(SCc3csc(-c4ccc(Cl)cc4)n3)c2C#N)n1 (centres unmarked) [Example 30, 2-Amino-6-([2-(4-chlorophenyl)-1,3-thiazol-4-yl]methylsulfanyl)-4-[1-(2-hydroxypropyl)-1H-pyrazol-3-yl]pyridine-3,5-dicarbonitrile]
1.2 | 275 | 715 |  |  |  | N#Cc1c(N)nc(SCc2csc(-c3ccc(Cl)cc3)n2)c(C#N)c1-c1cnc[nH]1 [Example 8]
0.6 | 2470 | 1280 |  |  |  | N#Cc1c(SCc2csc(-c3ccc(Cl)cc3)n2)nc(N2CC(O)C2)c(C#N)c1-c1nccs1 [Example 22]
0.5 | 3000 | 1570 |  |  |  | N#Cc1c(N)nc(SCc2csc(-c3ccc(Cl)cc3)n2)c(C#N)c1-c1cscn1 [Example 1, 2-Amino-6-([2-(4-chlorophenyl)-1,3-thiazol-4-yl]methylsulfanyl)-4-(1,3-thiazol-4-yl)pyridine-3,5-dicarbonitrile]
0.5 | 378 | 3000 |  |  |  | N#Cc1c(NC[C@H](O)CO)nc(SCc2csc(-c3ccc(Cl)cc3)n2)c(C#N)c1-c1nccs1 [Example 21]
0.4 | 3000 | 3000 |  |  |  | N#Cc1c(SCc2csc(-c3ccc(Cl)cc3)n2)nc(N2CC(O)C2)c(C#N)c1-c1cncs1 [Example 16, 2-([2-(4-Chlorophenyl)-1,3-thiazol-4-yl]methylsulfanyl)-6-(3-hydroxyazetidin-1-yl)-4-(1,3-thiazol-5-yl)pyridine-3,5-dicarbonitrile]
